From patent US9101133B2, “Phenyl-substituted bicyclooctane-1,3-dione-derivatives” (BAYER INTELLECTUAL PROPERTY GMBH, priority 2010, dated 2015)

What was measured:
POLCO = assay: Herbicidal post-emergence action; format: in vivo; conditions: 80 g/ha, visual assessment after about three weeks, 100% = plants have died
Description: (§1) 2. Herbicidal Post-Emergence Action
(§2) • Seeds of monocotylidonous and dicotylidonous weed and crop plants are placed in sandy loam in wood fibre pots, covered with soil and cultivated in a greenhouse under good growth conditions. Two to three weeks after sowing, the test plants are treated at the one-leaf stage. The test compounds, formulated as wettable powders (WP), are then with a water application rate of 600 l/ha (converted), with 0.2% of wetting agent added, sprayed onto the green parts of the plants in different amounts. After the test plants have been kept in the greenhouse under optimum growth conditions for about three weeks, the effect of the preparations is assessed visually in comparison to untreated controls (herbicidal effect in percent: 100% effect=the plants have died, 0% effect=like control plants). Post-Emergence, 80 g/ha

SETVI [1] = assay: Herbicidal post-emergence action; format: in vivo; conditions: visual assessment after about three weeks, 100% = plants have died; for pest or weed control at 80 g/ha: 504 h, read-out: herbicidal effect in percent, SETVI; for herbicidal effect in percent, SETVI: 80 g/ha
Description: as §1, §2

AVEFA [2] = assay: Herbicidal post-emergence action; format: in vivo; conditions: 80 g/ha, visual assessment after about three weeks, 100% = plants have died
Description: as §1, §2

LOLMU = assay: Herbicidal post-emergence action; format: in vivo; conditions: 80 g/ha, visual assessment after about three weeks, 100% = plants have died
Description: as §1, §2

ALOMY = assay: Herbicidal post-emergence action; format: in vivo; conditions: 80 g/ha, visual assessment after about three weeks, 100% = plants have died
Description: as §1, §2

ECHCG = assay: Herbicidal post-emergence action; format: in vivo; conditions: 80 g/ha, visual assessment after about three weeks, 100% = plants have died
Description: as §1, §2

[3] = tested on: monocotylidonous and dicotylidonous weed and crop plants; assay: Herbicidal pre-emergence action; format: in vivo; conditions: 320 g/ha, visual assessment after three weeks, 100% = plants have died; for herbicidal effect in percent, ALOMY: ALOMY = Alopecurus myosuroides; for herbicidal effect in percent, AVEFA: AVEFA = Avena fatua; for herbicidal effect in percent, ECHCG: ECHCG = Echinochloa crus-galli; for herbicidal effect in percent, LOLMU: LOLMU = Lolium multiflorum; for herbicidal effect in percent, SETVI: SETVI = Setaria viridis; for herbicidal effect in percent, VIOTR: VIOTR = Viola tricolor
Excerpt: 1. Herbicidal Pre-Emergence Action
• Seeds of monocotylidonous and dicotylidonous weed and crop plants are placed in sandy loam in wood fibre pots and covered with soil. The test compounds, formulated in the form of wettable powders (WP), are then, as an aqueous suspension with a water application rate of 600 l/ha (converted), with 0.2% of wetting agent added, applied to the surface of the covering soil in different amounts. • After the treatment, the pots are placed in a greenhouse and kept under good growth conditions for the test plants. The visual assessment of the emergence damage on the test plants is carried out after a trial period of three weeks by comparison with the untreated controls (herbicidal effect in percent: 100% effect=the plants have died, 0% effect=like control plants).

[4] = tested on: larvae of the mustard beetle (Phaedon cochleariae); assay: Phaedon test (PHAECO spray treatment); format: in vivo; conditions: application rate of 500 g/ha; Chinese cabbage leaf discs sprayed; after 7 days
Description: Phaedon Test […] Spray Treatment Solvents: 78.0 parts by weight of acetone • • 1.5 parts by weight of dimethylformamide Emulsifier: 0.5 part by weight of alkylaryl polyglycol ether To produce a suitable preparation of active compound, one part by weight of active compound is mixed with the stated amounts of solvents and emulsifier, and the concentrate is diluted with emulsifier-containing water to the desired concentration. Discs of Chinese cabbage leaves (Brassica pekinensis) are sprayed with an active compound preparation of the desired concentration and, after drying, populated with larvae of the mustard beetle (Phaedon cochleariae).

SETVI [5] = assay: Herbicidal post-emergence action; format: in vivo; conditions: 504 h, visual assessment after about three weeks, 100% = plants have died, read-out: herbicidal effect in percent, SETVI
AVEFA [6] = assay: Herbicidal post-emergence action; format: in vivo; conditions: 100 g/ha, visual assessment after about three weeks, 100% = plants have died
PHAMI = assay: Herbicidal post-emergence action; format: in vivo; conditions: 100 g/ha, visual assessment after about three weeks, 100% = plants have died
Description: as §1
as §2, with “Post-Emergence, 80 g/ha” left out

POAAN = assay: Herbicidal post-emergence action; format: in vivo; conditions: 100 g/ha, visual assessment after about three weeks, 100% = plants have died
Description: as §1
as §2, with “Post-Emergence, 80 g/ha” left out

APESV = assay: Herbicidal post-emergence action; format: in vivo; conditions: 100 g/ha, visual assessment after about three weeks, 100% = plants have died
Description: as §1
as §2, with “Post-Emergence, 80 g/ha” left out

VERPE = assay: Herbicidal post-emergence action; format: in vivo; conditions: 80 g/ha, visual assessment after about three weeks, 100% = plants have died
Description: as §1, §2

[7] = tested on: green peach aphid (Myzus persicae); assay: Myzus test (MYZUPE spray treatment); format: in vivo; conditions: application rate of 500 g/ha; Chinese cabbage leaf discs sprayed; after 6 days
Description: Solvents: 78 parts by weight of acetone
• 1.5 parts by weight of dimethylformamide Emulsifier: 0.5 part by weight of alkylaryl polyglycol ether
To produce a suitable preparation of active compound, one part by weight of active compound is mixed with the stated amounts of solvents and emulsifier, and the concentrate is diluted with emulsifier-containing water to the desired concentration.
Discs of Chinese cabbage leaves (Brassica pekinensis) which are infested by all stages of the green peach aphid (Myzus persicae) are sprayed with an active compound preparation of the desired concentration.
After 6 days, the effect in % is determined 100% means that all aphids have been killed; 0% means that none of the aphids have been killed.

Compound	herbicidal effect in percent, AVEFA (AVEFA [2])	herbicidal effect in percent, LOLMU (LOLMU)	herbicidal effect in percent, ALOMY (ALOMY)	herbicidal effect in percent, SETVI (SETVI [1])	herbicidal effect in percent, ECHCG (ECHCG)	herbicidal effect in percent, AVEFA [3]	herbicidal effect in percent, ECHCG [3]	herbicidal effect in percent, LOLMU [3]	herbicidal effect in percent, SETVI [3]	also measured
CCc1cc(C)cc(CC)c1C1C(=O)C2CC(COCOC)CC2C1=O (centres unmarked) [I-a-40, 2-(2,6-diethyl-4-methylphenyl)-5-methoxymethoxymethyltetrahydropentalene-1,3-dione]	90%	100%	100%							herbicidal effect in percent, POLCO (POLCO): 100%; pest or weed control at 80 g/ha (SETVI [1]): 90%
CCc1cc(C)cc(CC)c1C1C(=O)C2CC(OC)CC2C1=O (centres unmarked) [I-a-22]	100%	100%	100%	100%	100%	90%	100%	100%	100%	herbicidal effect in percent, ALOMY [3]: 100%
CCc1cc(C)cc(CC)c1C1C(=O)C2CC(CO)CC2C1=O (centres unmarked) [I-a-7]	70%	100%	100%	80%	100%	80%	100%	100%		
CCc1cc(C)cc(CC)c1C1C(=O)C2CC(C(=O)OC)CC2C1=O (centres unmarked) [I-a-9]	90%	100%	100%	100%	100%	80%	100%	100%	90%	herbicidal effect in percent, ALOMY [3]: 100%
CCc1cc(C)cc(CC)c1C1C(=O)C2CC(C#N)CC2C1=O (centres unmarked) [I-a-4, 5-(2,6-Diethyl-4-methylphenyl)-4,6-dioxooctahydropentalene-2-carbonitrile]	90%	60%	50%		100%		100%		90%	pest or weed control at 80 g/ha (SETVI [1]): 100%
CCc1cc(C)cc(CC)c1C1C(=O)C2CC(COC(=O)NCc3ccccc3)CC2C1=O (mixture of isomers) [I-a-47]										effect in % (beetle larvae killed) [4]: 100%
CCc1cc(C)cc(CC)c1C1=C(O)C2CC(C=NOC)CC2C1=O (centres unmarked) [I-a-13, 5-(2,6-diethyl-4-methylphenyl)-6-hydroxy-4-oxo-1,2,3,3a,4,6a-hexahydropentalene-2-carbaldehyde O-methyloxime]	100%	100%	100%		100%	80%		100%		pest or weed control at 80 g/ha (SETVI [1]): 100%; herbicidal effect in percent, STEME ([3]; STEME = Stellaria media): 100%; herbicidal effect in percent, VERPE ([3]; VERPE = Veronica persica): 90%; herbicidal effect in percent, VIOTR [3]: 100%
C=C1CC2C(=O)C(c3c(CC)cc(C)cc3CC)=C(OCc3ccccc3)C2C1 (centres unmarked) [I-a-0, 3-(Benzyloxy)-2-(2,6-diethyl-4-methylphenyl)-5-methylene-4,5,6,6a-tetrahydropentalen-1(3aH)-one]										melting point: 87 to 88 °C
CCc1cc(C)cc(CC)c1C1C(=O)C2CC(C3OCCCO3)CC2C1=O (centres unmarked) [I-a-5, 2-(2,6-Diethyl-4-methylphenyl)-5-(1,3-dioxan-2-yl)tetrahydropentalene-1,3(2H,3aH)-dione]	100%	100%	100%		100%	90%		100%	90%	pest or weed control at 80 g/ha (SETVI [1]): 100%; herbicidal effect in percent, ALOMY [3]: 100%
CCOC(=O)OC1=C(c2c(CC)cc(C)cc2CC)C(=O)C2CC(C(OC)OC)CC12 (centres unmarked) [I-c-1, 2-(2,6-Diethyl-4-methylphenyl)-5-(dimethoxymethyl)-3-oxo-3,3a,4,5,6,6a-hexahydropentalen-1-yl ethyl carbonate]										pest or weed control at 100 g/ha (SETVI [5]): 97%; herbicidal effect in percent, AVEFA (AVEFA [6]): 80%; herbicidal effect in percent, PHAMI (PHAMI): 99%; herbicidal effect in percent, POAAN (POAAN): 85%; herbicidal effect in percent, APESV (APESV): 100%
CCc1cc(C)cc(CC)c1C1C(=O)C2CC(COC(=O)Nc3ccccc3)CC2C1=O (mixture of isomers) [I-a-44]										effect in % (beetle larvae killed) [4]: 100%
CCc1cc(C)cc(CC)c1C1C(=O)C2CC(CCC#N)CC2C1=O (mixture of isomers) [I-a-37]	100%	100%	100%	100%	100%					herbicidal effect in percent, VERPE (VERPE): 80%
CCc1cc(C)cc(CC)c1C1=C(OC(=O)C(C)(C)C)C2CC(C3OCCO3)CC2C1=O (mixture of isomers) [I-b-4]	90%	100%	100%	100%	100%	90%	100%	100%	100%	herbicidal effect in percent, ALOMY [3]: 100%; herbicidal effect in percent, VIOTR [3]: 90%
CCOC(=O)OC1=C(c2c(CC)cc(C)cc2CC)C(=O)C2CC(C=CC#N)CC12 (mixture of isomers) [I-c-22]	100%		80%	100%	100%					effect in % (aphids killed) [7]: 100%; herbicidal effect in percent, VERPE (VERPE): 90%
CCc1cc(C)cc(CC)c1C1=C(OCc2ccccc2)C2CC(C=CC#N)CC2C1=O (mixture of isomers) [I-a-59]										effect in % (aphids killed) [7]: 100%
CCc1cc(C)cc(CC)c1C1C(=O)C2CC(O)CC2C1=O (centres unmarked) [I-a-23]	60%	90%	70%	100%	100%		100%		90%	
